# Laboratory results taken from publication PMC11070508, “Design, synthesis, molecular docking, and molecular dynamic studies of novel quinazoline derivatives as phosphodiesterase 7 inhibitors” (Frontiers in Pharmacology, 2024).
# “Also recorded” adds a separate entry of the source. Like-named read-outs stand apart in the source and are kept apart here.
# Experiments:
# PDE7A = biological target: T1, PDE7A (Homo sapiens, UniProt Q13946); assay: In vitro PDE7A inhibitory activity assay (fluorescence polarization PDE7A Assay Kit, BPS Bioscience); format: biochemical; details: for IC50: fluorescence polarization kit
# T1 construct: purchased BPS Bioscience 60373
# T1 sequence (Q13946 whole entry): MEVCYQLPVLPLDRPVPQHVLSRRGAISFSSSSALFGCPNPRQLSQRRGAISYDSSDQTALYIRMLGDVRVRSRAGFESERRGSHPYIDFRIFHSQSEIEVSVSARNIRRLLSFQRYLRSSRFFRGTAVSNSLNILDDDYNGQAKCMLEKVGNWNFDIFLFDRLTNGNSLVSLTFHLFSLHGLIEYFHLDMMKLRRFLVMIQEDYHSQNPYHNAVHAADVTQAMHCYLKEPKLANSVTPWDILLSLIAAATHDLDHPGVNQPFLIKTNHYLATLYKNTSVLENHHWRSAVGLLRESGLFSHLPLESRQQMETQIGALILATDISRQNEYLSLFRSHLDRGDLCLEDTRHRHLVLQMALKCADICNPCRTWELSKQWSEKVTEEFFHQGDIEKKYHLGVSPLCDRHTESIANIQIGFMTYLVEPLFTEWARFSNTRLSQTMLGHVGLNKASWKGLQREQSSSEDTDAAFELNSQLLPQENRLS
# Procedure: The inhibitory activity of the compounds was determined as half maximal inhibitory concentration IC50 in μM ([Malik et al., 2008]; [Pekkinen et al., 2008]).
# All the newly synthesized compounds 4a-h and 5a-h were evaluated for in vitro PDE7A inhibitory activity using a fluorescence polarization PDE7A Assay Kit (Catalog no. 60373; BPS Bioscience) ([Malik et al., 2008]; [Pekkinen et al., 2008]). The assay is based on the binding of fluorescent nucleotide, a monophosphate generated by PDE7A to the binding agent. PDE7A catalyzes the hydrolysis of the phosphodiester bond in dye-labeled cyclic adenosine monophosphate (cAMP). Nanoparticle beads selectively bind the phosphate group in the nucleotide product. This increases the size of the nucleotide relative to unreacted cAMP. Since the degree of polarization of a fluorophore is inversely related to its molecular rotation, dyes attached to the slowly rotating nucleotide-bead complexes will not have time to reorient and therefore will emit highly polarized light. Conversely, dyes attached to the rapidly rotating cyclic monophosphates will obtain random orientations and emit light with low polarization.
# The PDE7A inhibitor screening assay kit comes in a convenient 384-well format, including purified PDE7A enzyme, fluorescently labeled PDE7A substrate (cAMP), binding agent, and PDE assay buffer for 384 enzyme reactions. The key to the PDE7A Assay Kit is the specific binding agent. Using this kit, only two simple steps on a microtiter plate are required for PDE7A reactions. First, the fluorescently labeled cAMP is incubated with a sample containing PDE7A for 1 h. Second, a binding agent is added to the reaction mix to produce a change in fluorescent polarization that can then be measured using a fluorescence reader. The microtiter plate reader is capable of excitation at wavelengths ranging from 485 ± 15 nm and detection of emitted light ranging from 528 ± 10 nm. […] The inhibitory activity of the tested compounds was determined as half maximal inhibitory concentration IC50 in μM compared to the two reference standards.
# This in vitro testing assay was carried out at the confirmatory diagnostic unit, Vacsera, Egypt, and the results are presented in Table 1 and represented in Figure 2. […] Halogen atoms are lipophilic substituents commonly used in the design of novel biologically active molecules.
# PDE7 = details: cited from earlier work
SMILES,melting point [°C],PDE7A inhibitory activity (result in words) (PDE7A),IC50 (PDE7A) [µM],"IC50 (PDE7; ref Elfeky et al., 2020) [nM]","IC50 (PDE7; ref Sánchez et al., 2013) [nM]"
"OCc1ccc(-c2nnc3c4cc(Cl)ccc4nc(Cl)n23)o1 [Compound 5e, 5,9-Dichloro-3-(5-hydroxymethyl-2-furyl)-1,2,4-triazolo[4,3-c]quinazoline]",< 280,among the least effective compounds,1.34,–,–
Cn1c(-c2ccoc2)nc(=O)c2ccccc21 [B],–,–,–,90,–
"Clc1ccc2nc(Cl)n3c(-c4ccnc5ccccc45)nnc3c2c1 [Compound 5h, 5,9-Dichloro-3-(4-quinolinyl)-1,2,4-triazolo[4,3-c]quinazoline]",< 280,very low PDE7 inhibitory effect,1.8,–,–
"Clc1nc(NN=Cc2c[nH]c3ccc(Br)cc23)c2ccccc2n1 [Compound 4c, 4-[2-(5-bromo-1H-3-indolylmethylene)hydrazino]-2-chloroquinazoline]",238 to 240,–,0.478,–,–
"Clc1nc2ccccc2c2nnc(-c3c[nH]c4ccc(Br)cc34)n12 [Compound 5c, 3-(5-Bromo-3-indolyl)-5-chloro-1,2,4-triazolo[4,3-c]quinazoline]",200 to 202,good potency; also recorded: good activity,0.18,–,–
"Cc1ccc([N+](=O)[O-])cc1S(=O)(=O)N(C)C [BRL50481, reference compound]",–,–,0.034,–,–
"OCc1ccc(C=NNc2nc(Cl)nc3ccc(Cl)cc23)o1 [Compound 4e, 2,6-Dichloro-4-[2-(5-hydroxymethyl-2-furylmethylene)hydrazino]quinazoline]",< 280,among the least effective compounds,1.97,–,–
"Clc1nc(NN=Cc2ccnc3ccccc23)c2ccccc2n1 [Compound 4d, 2-Chloro-4-[2-(4-quinolinylmethylene)hydrazino]quinazoline]",205 to 207,–,0.249,–,–
"OCc1ccc(C=NNc2nc(Cl)nc3ccccc23)o1 [Compound 4a, 2-Chloro-4-[2-(5-hydroxymethyl-2-furylmethylene)hydrazino]quinazoline]",> 280,among the least effective compounds,0.653,–,–
CC(C)c1nc(SCc2ccc(-c3ccccc3-c3nnn[nH]3)cc2)c2ccccc2n1 [C],–,–,–,–,770
"Clc1ccc2nc(Cl)n3c(-c4c[nH]c5ccc(Br)cc45)nnc3c2c1 [Compound 5g, 3-(5-Bromo-3-indolyl)-5,9-dichloro-1,2,4-triazolo[4,3-c]quinazoline]",> 280,good activity,0.407,–,–
"Clc1nc2ccccc2c2nnc(-c3cccnc3)n12 [Compound 5b, 5-Chloro-3-(3-pyridyl)-1,2,4-triazolo[4,3-c]quinazoline]",> 280,high PDE7 inhibitory potencies,0.32,–,–
"Clc1nc(NN=Cc2cccnc2)c2ccccc2n1 [Compound 4b, 2-Chloro-4-[2-(3-pyridylmethylene)hydrazino]quinazoline]",< 280,good potency; also recorded: high PDE7 inhibitory potencies; also recorded: highest selective PDE7A inhibitors,0.114,–,–
"Clc1nc2ccccc2c2nnc(-c3ccnc4ccccc34)n12 [Compound 5d, 5-Chloro-3-(4-quinolinyl)-1,2,4-triazolo[4,3-c]quinazoline]",220 to 222,very low PDE7 inhibitory effect,0.894,–,–
"Clc1ccc2nc(Cl)n3c(-c4cccnc4)nnc3c2c1 [Compound 5f, 5,9-Dichloro-3-(3-pyridyl)-1,2,4-triazolo[4,3-c]quinazoline]",219 to 221,good potency; also recorded: high PDE7 inhibitory potencies; also recorded: highest selective PDE7A inhibitors,0.142,–,–
"Clc1ccc2nc(Cl)nc(NN=Cc3cccnc3)c2c1 [Compound 4f, 2,6-Dichloro-4-[2-(3-pyridylmethylene)hydrazino]quinazoline]",198 to 200,high PDE7 inhibitory potencies,0.343,–,–
"OCc1ccc(-c2nnc3c4ccccc4nc(Cl)n23)o1 [Compound 5a, 5-Chloro-3-(5-hydroxymethyl-2-furyl)-1,2,4-triazolo[4,3-c]quinazoline]",> 280,–,0.251,–,–
"Clc1ccc2nc(Cl)nc(NN=Cc3ccnc4ccccc34)c2c1 [Compound 4h, 2,6-Dichloro-4-[2-(4-quinolinylmethylene)hydrazino]quinazoline]",< 280,very low PDE7 inhibitory effect,0.627,–,–
O=c1[nH]c(=S)[nH]c2cc(F)c(F)cc12 [A],–,–,–,70,–
CC(C)c1nc(SCc2ccc(-c3ccc(C(=O)O)cc3)cc2)c2ccccc2n1 [D],–,–,–,–,930
"Clc1ccc2nc(Cl)nc(NN=Cc3c[nH]c4ccc(Br)cc34)c2c1 [Compound 4g, 4-[2-(5-bromo-1H-3-indolylmethylene)hydrazino]-2,6-dichloroquinazoline]",< 280,good potency; also recorded: good activity,0.15,–,–
